# From patent US7790752B2, “Indol-3-yl-carbonyl-azaspiro derivatives” (Hoffmann-La Roche Inc., priority 2005, dated 2010)
# Target: T1, human V1a receptor (Homo sapiens, UniProt P37288)
# T1 construct: expressed in transfected cells; host or cells: HEK293 cells, transiently transfected; membrane preparation
# Assay: human V1a receptor binding (3H-Vasopressin SPA, HEK293 membranes)
# Settings: displacement of 3H-Vasopressin; membranes of HEK293 cells transiently transfected with human V1a receptor; Ki from IC50 by Cheng-Prussoff equation
# Experimental: The human V1a receptor was cloned by RT-PCR from total human liver RNA. The coding sequence was subcloned in an expression vector after sequencing to confirm the identity of the amplified sequence. […] Cell membranes were prepared from HEK293 cells transiently transfected with the expression vector and grown in 20 liter fermenters with the following protocol.
# 50 g of cells are resuspended in 30 ml freshly prepared ice cold Lysis buffer (50 mM HEPES, 1 mM EDTA, 10 mM MgCl2 adjusted to pH=7.4+complete cocktail of protease inhibitor (Roche Diagnostics)). Homogenized with Polytron for 1 min and sonicated on ice for 2×2 minutes at 80% intensity (Vibracell sonicator). The preparation is centrifuged 20 min at 500 g at 4° C., the pellet is discarded and the supernatant centrifuged 1 hour at 43,000 g at 4° C. (19,000 rpm). The pellet is resuspended in 12.5 ml Lysis buffer+12.5 ml Sucrose 20% and homogenized using a Polytron for 1-2 min. The protein concentration is determined by the Bradford method, and aliquots are stored at −80° C. until use. For binding studies 60 mg Yttrium silicate SPA beads (Amersham) are mixed with an aliquot of membrane in binding buffer (50 mM Tris, 120 mM NaCl, 5 mM KCl, 2 mM CaCl2, 10 mM MgCl2) for 15 minutes with mixing. 50 ul of bead/membrane mixture is then added to each well of a 96 well plate, followed by 50 ul of 4 nM 3H-Vasopressin (American Radiolabeled Chemicals). For total binding measurement 100 ul of binding buffer are added to the respective wells, for non-specific binding 100 ul of […] cold vasopressin and for compound testing 100 ul of a serial dilution of each compound in 2% DMSO. The plate is incubated 1 h at room temperature, centrifuged 1 min at 1000 g and counted on a Packard Top-Count. Non-specific binding counts are subtracted from each well, and data is normalized to the maximum specific binding set at 100%. To calculate an IC 50 the curve is fitted using a non-linear regression model (XLfit), and the Ki is calculated using the Cheng-Prussoff equation.
# T1 sequence (P37288 whole entry): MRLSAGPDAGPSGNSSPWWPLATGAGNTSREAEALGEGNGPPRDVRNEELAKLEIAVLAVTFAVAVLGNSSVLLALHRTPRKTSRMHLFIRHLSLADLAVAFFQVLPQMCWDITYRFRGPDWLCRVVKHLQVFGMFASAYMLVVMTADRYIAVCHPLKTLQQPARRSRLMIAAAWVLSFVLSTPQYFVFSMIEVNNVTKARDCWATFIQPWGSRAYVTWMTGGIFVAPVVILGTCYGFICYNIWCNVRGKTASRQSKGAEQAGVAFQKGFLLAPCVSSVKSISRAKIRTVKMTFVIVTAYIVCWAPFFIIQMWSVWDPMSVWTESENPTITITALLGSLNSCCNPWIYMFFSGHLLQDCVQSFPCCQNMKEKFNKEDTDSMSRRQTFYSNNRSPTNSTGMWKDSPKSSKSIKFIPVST
smiles,measurement,value
"Cc1c(C(=O)N2CCC3(CC2)C(=O)N(C)CN3c2ccccc2)c2ccccc2n1Cc1ccccc1 [Example 1, 8-[(1-Benzyl-2-methyl-1H-indol-3-yl)carbonyl]-3-methyl-1-phenyl-1,3,8-triazaspiro[4.5]decan-4-one]",Ki,0.368 µM
"Cc1c(C(=O)N2CCC3(CC2)C(=O)NCN3c2ccccc2)c2ccccc2n1Cc1ccccc1 [Example 2, 8-(1-Benzyl-2-methyl-1H-indole-3-carbonyl)-1-phenyl-1,3,8-triaza-spiro[4.5]decan-4-one]",Ki,0.367 µM
"CN(C)CCn1cc(C(=O)N2CCC3(CC2)C(=O)N(C)CN3c2ccccc2)c2ccc(Cl)cc21 [Example 7, 8-({6-Chloro-1-[2-(dimethylamino)ethyl]-1H-indol-3-yl}carbonyl)-3-methyl-1-phenyl-1,3,8-triazaspiro[4.5]decan-4-one]",Ki,0.156 µM
"CNC(=O)Cn1cc(C(=O)N2CCC3(CC2)C(=O)N(C)CN3c2ccccc2)c2ccc(Cl)cc21 [Example 8, 2-{6-Chloro-3-[(3-methyl-4-oxo-1-phenyl-1,3,8-triazaspiro[4.5]dec-8-yl)carbonyl]-1H-indol-1-yl}-N-methylacetamide]",Ki,0.037 µM
"CN1CN(c2ccccc2)C2(CCN(C(=O)c3cn(Cc4cc(F)cc(F)c4)c4cc(Cl)ccc34)CC2)C1=O [Example 9, 8-{[6-Chloro-1-(3,5-difluorobenzyl)-1H-indol-3-yl]carbonyl}-3-methyl-1-phenyl-1,3,8-triazaspiro[4.5]decan-4-one]",Ki,0.021 µM
"CN(C)C(=O)Cn1cc(C(=O)N2CCC3(CC2)C(=O)N(C)CN3c2ccccc2)c2ccc(Cl)cc21 [Example 10, 2-{6-Chloro-3-[(3-methyl-4-oxo-1-phenyl-1,3,8-triazaspiro[4.5]dec-8-yl)carbonyl]-1H-indol-1-yl}-N,N-dimethylacetamide]",Ki,0.014 µM
"CN1CN(c2ccccc2)C2(CCN(C(=O)c3cn(Cc4ccccc4)c4cc(Cl)ccc34)CC2)C1=O [Example 11, 8-[(1-Benzyl-6-chloro-1H-indol-3-yl)carbonyl]-3-methyl-1-phenyl-1,3,8-triazaspiro[4.5]decan-4-one]",Ki,0.045 µM
"CN1CN(c2ccccc2)C2(CCN(C(=O)c3cn(Cc4cccc(Cl)c4F)c4cc(Cl)ccc34)CC2)C1=O [Example 13, 8-{[6-Chloro-1-(3-chloro-2-fluorobenzyl)-1H-indol-3-yl]carbonyl}-3-methyl-1-phenyl-1,3,8-triazaspiro[4.5]decan-4-one]",Ki,0.073 µM
"CN(C)CCNC(=O)Cn1cc(C(=O)N2CCC3(CC2)C(=O)N(C)CN3c2ccccc2)c2ccc(Cl)cc21 [Example 14, 2-{6-Chloro-3-[(3-methyl-4-oxo-1-phenyl-1,3,8-triazaspiro[4.5]dec-8-yl)carbonyl]-1H-indol-1-yl}-N-[2-(dimethylamino)ethyl]acetamide]",Ki,0.184 µM
"Cc1c(C(=O)N2CCC3(CC2)OCCO3)c2ccccc2n1Cc1ccccc1 [Example 15, (1-Benzyl-2-methyl-1H-indol-3-yl)-(1,4-dioxa-8-aza-spiro[4.5]dec-8-yl)-methanone]",Ki,0.424 µM
"O=C(c1c[nH]c2cc(Cl)ccc12)N1CCC2(CC1)OCCO2 [Example 16, 8-[(6-Chloro-1H-indol-3-yl)carbonyl]-1,4-dioxa-8-azaspiro[4.5]decane]",Ki,0.284 µM
